Source: patent US4010191A, “Acyl derivatives of substituted bis-arylalkylamino compounds” (Deutsche Gold- und Silber-Scheideanstalt vormals Roessler, priority 1969, dated 1977)

Key:
[1] = test system: heart; assay: Heart and circulatory action, comparative tests with papaverine (Langendorff hearts / dogs); set-up: species or system guinea pig; dog
Description: The compounds of the invention were tested in detached guinea pig hearts by the method of Langendorff (Pfluger's Arch. 61 (1895) 291) in respect of the coronary flow, the inotropic action and the heart frequency. Also there were tested in anaesthetized dogs which had been subjected to a thoracostomy.
The significant parameters of the heart and circulatory activity in this case were determined by means of electromagnetic flux measurement and pressure measurement in the interior of the heart ventricle.

[2] = test system: detached tracheas obtained from guinea pigs; assay: Broncholytic action on detached tracheas (histamine spasm); set-up: species or system guinea pig; details: comparative tests

For `COc1ccc(Cc2nccc3cc(OC)c(OC)cc23)cc1OC` [papaverine], the “inotropy compared with the compounds of the invention” value [1] was “smaller inotropy”, the “duration of action compared with the compounds of the invention” value ([1]; heart and circulatory action) was “substantially shorter duration of action” and the “duration of action compared to the compounds of the invention” value [2] was “substantially shorter duration”.
